Reference: PMC9956223, “In Vitro Inhibitory Effects of Polyphenols from Flos sophorae immaturus on α-Glucosidase: Action Mechanism, Isothermal Titration Calorimetry and Molecular Docking Analysis” (Foods, 2023)
Entries after “also recorded” stand apart in the source; their conditions may differ. Marks after values point to notes of the source that are not given here.

What was measured:
[1] = target: α-glucosidase (Yeast); assay: α-glucosidase inhibitory activity (PNPG substrate, absorbance at 405 nm); type: biochemical; conditions: α-glucosidase 0.2 U/mL, pH 6.8, 37 °C
Experimental: (§1) The α-glucosidase inhibitory activity of the FSI samples was measured using the method described by Xiao et al., with minor modifications. Each sample solution (0.2 mL) was mixed with 1 mL of α-glucosidase (0.2 U/mL) of pH = 6.8 phosphate buffer solution. After incubation at 37 °C for 15 min, 0.5 mL of 5 mmol/L PNPG in phosphate buffer solution was added. The reaction was terminated by the addition of 1 mL of 0.1 mol/L sodium Na2CO3 […] at 37 °C for 15 min. The absorbance was measured at 405 nm. The α-glucosidase inhibitory activity was calculated using the following Equation (1):(1) α-Glucosidase inhibitory activity(%)=(ΔAcontrol−ΔAsample/ΔAcontrol)×100

[2] = test system: α-glucosidase (Yeast); assay: Omission experiment (model, single polyphenol and recombinant solutions); type: biochemical; conditions: single polyphenol solution at its content in FSI extract (RU 3.40, QU 0.38, HY 0.34, QI 0.23, KA 0.23 mg/mL)
Experimental: as §1
Three different solutions were prepared based on different polyphenol fractions (RU (3.40 mg/mL), QU (0.38 mg/mL), HY (0.34 mg/mL), QI (0.23 mg/mL) and KA (0.23 mg/mL): (1) Model solution: a model solution based on the composition of FSI extract. (2) Single polyphenol solution: a component solution containing only a single polyphenol, prepared based on the polyphenol content in FSI extract. (3) Recombinant solution: a reconstituted solution consisting of the missing individual polyphenol. The α-glucosidase inhibitory activities of the model, single polyphenol and recombinant solutions were determined and the contribution of the missing polyphenols to α-glucosidase activity inhibition was calculated.

[3] = test system: α-glucosidase (Yeast); assay: α-glucosidase inhibition type and kinetic analysis (Lineweaver–Burk); type: biochemical; conditions: for type of inhibition: Lineweaver–Burk plots; for Ki: binding to α-glucosidase, Lineweaver–Burk
Experimental: In 5 mL of the reaction system, different concentrations of PNPG (0.5 mL) were mixed with different concentrations of polyphenols (0.1 mL) in a warm bath at 37 °C for 5 min, α-glucosidase solution (1 mL) was added and the absorbance was recorded at 405 nm in real time. Lineweaver–Burk curve method using the inverse of the PNPG concentration 1/(s) as the horizontal coordinate and the inverse of the enzymatic reaction rate 1/v as the vertical coordinate, and the type of inhibition was determined from the characteristics of the graph.

[4] = test system: α-glucosidase (Yeast); assay: Fluorescence quenching (Stern–Volmer) and thermodynamic parameters; type: binding
Experimental: An equal volume of polyphenol solution (0.02 mg/mL) was added to 3 mL of α-glucosidase solution (0.05 mg/mL) in 9 separate additions of 10 μL each. The mixture was shaken and then placed in a warm bath at 37 °C for 15 min. The system was scanned for fluorescence at three temperatures (298 K, 303 K, 310 K) using an F-7000 fluorescence spectrometer (Hitachi, Tokyo, Japan) at an excitation wavelength of 280 nm and excitation and emission slits of 5 nm. The fluorescence was scanned in the range of 310–500 nm and the corresponding blank control fluorescence spectra were subtracted to calculate the fluorescence. The Stern–Volmer equation was used to calculate the fluorescence burst constants and determine the type of burst.
Therefore, the spontaneity and binding force of their interactions can be studied by calculating thermodynamic parameters. The values of the free energy change (ΔG), enthalpy change (ΔH) and entropy change (ΔS) can be calculated by Equations (5) and (6). (5) ΔG=[…]=ΔH−TΔS (6) lnKb2/Kb1=[…]ΔH×1/R where R = 8.314 J/(mol·K).

O=c1c(O[C@@H]2O[C@H](CO)[C@H](O)[C@H](O)[C@H]2O)c(-c2ccc(O)c(O)c2)oc2cc(O)cc(O)c12 [Hyperoside, hyperoside]
IC50 [1]: 12.77 ± 0.07 ^d mg/mL
α-Glucosidase Inhibition Rate of Omitted Compounds [2]: 75.00 ± 0.32%
type of inhibition ([3]; listed as HY): mixed type of inhibition; also recorded: mixed inhibitors
Ki [3]: 3.79 mM
Ki ([3]; listed as HY): 3.91 mM
KSV ([4]; 298 K): 124300 L/mol
Kq ([4]; 298 K): 1.243e+13 M⁻¹ s⁻¹
KSV ([4]; 303 K): 89600 L/mol
Kq ([4]; 303 K): 8.96e+12 M⁻¹ s⁻¹
KSV ([4]; 310 K): 111700 L/mol
Kq ([4]; 310 K): 1.117e+13 M⁻¹ s⁻¹

COc1cc(-c2oc3cc(O)cc(O)c3c(=O)c2O)ccc1O [Isorhamnetin, isorhamnetin]
IC50 [1]: 255.00 ± 0.11 ^g mg/mL
Ki [3]: 15.1 mM

O=c1c(O)c(-c2ccc(O)cc2)oc2cc(O)cc(O)c12 [Kaempferol, kaempferol]
α-Glucosidase Inhibition Rate of Omitted Compounds [2]: 81.00 ± 0.12%
type of inhibition ([3]; listed as KA): mixed type of inhibition; also recorded: mixed inhibitors
KSV ([4]; 298 K): 222300 L/mol
Kq ([4]; 298 K): 2.223e+13 M⁻¹ s⁻¹
KSV ([4]; 303 K): 493300 L/mol
Kq ([4]; 303 K): 4.933e+13 M⁻¹ s⁻¹
KSV ([4]; 310 K): 424600 L/mol
Kq ([4]; 310 K): 4.246e+13 M⁻¹ s⁻¹

O=C(O)c1ccc(O)c(O)c1 [Protocatechuic acid, protocatechuic acid]
IC50 [1]: 369.00 ± 0.11 ^h mg/mL
Ki [3]: 17.7 mM

O=c1c(O)c(-c2ccc(O)c(O)c2)oc2cc(O)cc(O)c12 [Quercetin, quercetin]
α-Glucosidase Inhibition Rate of Omitted Compounds [2]: 89.00 ± 0.25%
type of inhibition ([3]; listed as QU): mixed type of inhibition; also recorded: mixed inhibitors
KSV ([4]; 298 K): 107100 L/mol
Kq ([4]; 298 K): 1.071e+13 M⁻¹ s⁻¹
KSV ([4]; 303 K): 75200 L/mol
Kq ([4]; 303 K): 7.52e+12 M⁻¹ s⁻¹
KSV ([4]; 310 K): 55500 L/mol
Kq ([4]; 310 K): 5.55e+12 M⁻¹ s⁻¹

C[C@@H]1O[C@@H](Oc2c(-c3ccc(O)c(O)c3)oc3cc(O)cc(O)c3c2=O)[C@H](O)[C@H](O)[C@H]1O [Quercitrin, quercitrin]
IC50 [1]: 25.37 ± 0.13 ^e mg/mL
α-Glucosidase Inhibition Rate of Omitted Compounds [2]: 77.00 ± 0.20%
type of inhibition ([3]; listed as QI): mixed type of inhibition; also recorded: mixed inhibitors
Ki [3]: 5.31 mM
KSV ([4]; 298 K): 74500 L/mol
Kq ([4]; 298 K): 7.45e+12 M⁻¹ s⁻¹
KSV ([4]; 303 K): 78700 L/mol
Kq ([4]; 303 K): 7.87e+12 M⁻¹ s⁻¹
KSV ([4]; 310 K): 54500 L/mol
Kq ([4]; 310 K): 5.45e+12 M⁻¹ s⁻¹

C[C@@H]1O[C@@H](OC[C@H]2O[C@@H](Oc3c(-c4ccc(O)c(O)c4)oc4cc(O)cc(O)c4c3=O)[C@H](O)[C@@H](O)[C@@H]2O)[C@H](O)[C@H](O)[C@H]1O [Rutin]
α-Glucosidase Inhibition Rate of Omitted Compounds [2]: 69.00 ± 0.11%
type of inhibition ([3]; listed as RU): mixed type of inhibition; also recorded: mixed inhibitors
KSV ([4]; 298 K): 45000 L/mol
Kq ([4]; 298 K): 4.5e+12 M⁻¹ s⁻¹
KSV ([4]; 303 K): 93700 L/mol
Kq ([4]; 303 K): 9.37e+12 M⁻¹ s⁻¹
KSV ([4]; 310 K): 93400 L/mol
Kq ([4]; 310 K): 9.34e+12 M⁻¹ s⁻¹
